Reference: PubChem BioAssay (NCI)
Several values for one entry are separate records, joined by “and”; a condition that tells them apart may be missing. Equal entries are not always repeated.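 Growth conditions: 96-well plates. Treatment: test compound, 48 hours, 5 concentrations. Analysis: linear interpolation between bracketing concentrations; unreached endpoints set to highest concentration. GI50 is the concentration that inhibits growth by half. Definition used: TGI = concentration required for complete inhibition of growth.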

Legend:
Assay in all cases: growth of human tumour cells (NCI), 48 h
IGROV1 ovarian = system: IGROV1 ovarian
KM12 colon = system: KM12 colon
OVCAR-5 ovarian = system: OVCAR-5 ovarian
CCRF-CEM leukemia = system: CCRF-CEM leukemia
A549 NSCLC = system: A549 NSCLC
HCC-2998 colon = system: HCC-2998 colon
SF-295 CNS = system: SF-295 CNS
SK-OV-3 ovarian = system: SK-OV-3 ovarian
SN12C renal = system: SN12C renal
MOLT-4 leukemia = system: MOLT-4 leukemia

Structure (SMILES) | TGI (IGROV1 ovarian) | TGI (KM12 colon) | TGI (OVCAR-5 ovarian) | TGI (CCRF-CEM leukemia) | TGI (A549 NSCLC) | TGI (HCC-2998 colon) | TGI (SF-295 CNS) | TGI (SK-OV-3 ovarian) | TGI (SN12C renal) | TGI (MOLT-4 leukemia) | GI50 (IGROV1 ovarian) | GI50 (KM12 colon) | GI50 (OVCAR-5 ovarian) | GI50 (CCRF-CEM leukemia) | GI50 (A549 NSCLC) | GI50 (HCC-2998 colon) | GI50 (SF-295 CNS) | GI50 (SK-OV-3 ovarian) | GI50 (SN12C renal) | GI50 (MOLT-4 leukemia)
C[C@@H]1C[C@@]2(O[C@@H]2C)C(=O)O[C@@H]2CCN3CC=C(COC(=O)[C@]1(C)O)[C@H]23 | > 100 µM | > 100 µM | > 100 µM | > 100 µM | > 100 µM | > 100 µM | > 100 µM | > 100 µM | > 100 µM | > 100 µM |  |  |  |  |  |  |  |  |  | 
Clc1nc(Cl)c(Cc2ccccc2)c(Cl)n1 | 46.7 µM | 66.3 µM | 38.2 µM | > 100 µM | 27.5 µM | 66.1 µM | 32 µM | 28.9 µM | 32 µM | > 100 µM |  |  |  |  |  |  |  |  |  | 
N#Cc1nc2cc(F)c(F)cc2nc1-c1ccc(Cl)cc1 | 2.31 µM | > 100 µM | > 100 µM | 3.12 µM | > 100 µM | 17.6 µM | 38.9 µM | > 88 µM | 34.8 µM | > 28.3 µM | 0.673 µM | 51.9 µM | > 100 µM | 0.181 µM | 39.3 µM | 3.93 µM | 12.2 µM | > 46.7 µM | 6.83 µM | 3.21 µM
Cc1ccc(S(=O)(=O)Nc2nc3ccccc3nc2Nc2ccc3nsnc3c2)cc1 | > 100 µM and 59.4 µM | > 100 µM | > 100 µM | > 100 µM | > 100 µM | 42.9 µM and > 100 µM | 15.7 µM and 13.3 µM | > 100 µM | 46.8 µM and > 100 µM | 34.9 µM and > 100 µM | 4.16 µM and 2.7 µM | 4.3 µM | 17.4 µM and > 81.2 µM | 3.32 µM and 2.93 µM | 3.68 µM and 3.5 µM | 3.47 µM and 3.67 µM | 2.98 µM and 2.36 µM | 4.76 µM | 3.1 µM and 3.04 µM | 4.3 µM and 3.61 µM
COc1ccc2nc(C)cc(Nc3ccccc3O)c2c1 | > 100 µM | > 100 µM | > 100 µM | > 100 µM | > 100 µM | 34.3 µM | > 100 µM | > 100 µM | > 100 µM | 78.6 µM | 31.4 µM | 35.9 µM | 28.9 µM | 21.7 µM | 38 µM | 17.6 µM | 24.5 µM | > 100 µM | 38.2 µM | 24.8 µM
C/C(=C\CC[C@]1(C)OC(C)(C)OC1CC/C(C)=C/CO[Si](c1ccccc1)(c1ccccc1)C(C)(C)C)CC/C=C/CO[Si](C)(C)C(C)(C)C (stereo not given in full) | > 100 µM | > 100 µM | > 100 µM | > 100 µM | > 100 µM | > 100 µM | > 100 µM | > 100 µM | > 100 µM | > 100 µM |  |  |  |  |  |  |  |  |  | 
O=C(/C=C1/NC(=O)CS1)Nc1ccccc1 | > 100 µM | > 100 µM | > 100 µM | > 100 µM | > 100 µM | > 100 µM | > 100 µM | > 100 µM | > 100 µM | > 100 µM |  |  |  |  |  |  |  |  |  | 
C=C1C(=O)O[C@H]2[C@H]1CC/C(CNS(=O)(=O)c1cccc3ccccc13)=C\CC[C@@]1(C)O[C@@H]21 | 3.4 µM | 25.8 µM | 8.44 µM | 3.82 µM | 32.4 µM | 4.87 µM | 19.2 µM | 24.5 µM | 7.74 µM | 5.27 µM | 1.38 µM | 9.76 µM | 2.84 µM | 0.624 µM | 11.5 µM | 2.16 µM | 5.49 µM | 12.1 µM | 2.12 µM | 1.87 µM
O=P1(O)c2ccccc2Nc2cc(C(F)(F)F)ccc21 | > 100 µM | > 100 µM | > 100 µM | > 100 µM | > 100 µM | > 100 µM | > 100 µM | > 100 µM | > 100 µM | > 100 µM |  |  |  |  |  |  |  |  |  | 
C[CH2][Sn]([Cl])([Cl])[CH2]C | > 100 µM | > 100 µM | > 100 µM | 39.9 µM | > 100 µM | > 100 µM | > 100 µM | > 100 µM | > 78.6 µM | > 94.5 µM | > 100 µM | > 100 µM | > 100 µM | 9.5 µM | > 100 µM | > 64.9 µM | > 75 µM | > 100 µM | 35.1 µM | 29 µM
CCCN(CCC)C(=O)[C@H](CC)[C@@H]1CC[C@@H](C)[C@@H]([C@H](C)[C@@H](O)[C@@H](C)C(=O)[C@H](CC)C2O[C@]3(C=C[C@@H](O)[C@]4(CC[C@@](C)([C@H]5CC[C@](O)(CC)[C@H](C)O5)O4)O3)[C@H](C)C[C@@H]2C)O1 (stereo not given in full) | 10.5 µM | 4.02 µM | 5.27 µM | 8.83 µM | 26.9 µM | 5.76 µM | 8.91 µM | 19.9 µM | 6.1 µM | 6.41 µM | 2.59 µM | 1.86 µM | 2.09 µM | 2.78 µM | 3.18 µM | 2.18 µM | 2.45 µM | 3.29 µM | 2.13 µM | 2.39 µM
COc1ccc(/C=C/C(=O)c2cc3c(N)c(C(=O)Nc4ccccc4)sc3nc2C)cc1 | > 50 µM | 7.18 µM | > 50 µM | > 28.7 µM | > 50 µM | 6.53 µM | > 50 µM | > 50 µM | > 21 µM | > 50 µM | 0.252 µM | 0.204 µM | 0.385 µM | 0.184 µM | 0.273 µM | 0.785 µM | 0.232 µM | 0.248 µM | 0.311 µM | 0.318 µM
CNc1nc(N(C)C)nc(N(C)C)n1 | > 100 µM and 2640 µM | > 100 µM and 3420 µM | > 100 µM and 3960 µM | > 100 µM and 6600 µM | > 100 µM and 3500 µM | > 100 µM and 3590 µM | > 100 µM and 2440 µM | > 100 µM and 3640 µM | > 100 µM and 3960 µM | > 100 µM and 7060 µM | > 100 µM and 1100 µM | > 100 µM and 1450 µM | > 100 µM and 909 µM | > 100 µM and 4060 µM | > 100 µM and 2150 µM | > 100 µM and 1520 µM | > 100 µM and 1130 µM | > 100 µM and 1390 µM | > 100 µM and 2050 µM | > 100 µM and 1810 µM
C[CH2][Sn]([CH2]C)([O]C(=O)c1cccc(F)c1)[O][Sn]([CH2]C)([CH2]C)[O]C(=O)c1cccc(F)c1 | > 100 µM | > 100 µM | 50.9 µM | 34.7 µM | > 100 µM | > 100 µM | 36.9 µM | > 100 µM | 31.3 µM | > 100 µM | > 100 µM | > 100 µM | 25.4 µM | 4.28 µM | > 100 µM | 76.1 µM | 18.7 µM | > 100 µM | 17 µM | 31.9 µM
